Measured values reported in patent US8404694B2, “Aurora kinase modulators and method of use” (Amgen Inc., priority 2008, dated 2013).

Legend:
[1] = tested on: HeLa cells; experiment: HeLa cell 24 hr ploidy assay; type: cell-based; details: Homo sapiens, 24 hrs treatment, DNA content (ploidy), read-out: 24 h_4N Ploidy EC50—IP (Avg)
Experimental: HeLa Cell 24 hr Ploidy Assay Protocol
The purpose of this assay is to evaluate the ability of selected individual compounds to induce Deoxyribonucleic acid (DNA) content (ploidy) in cells thought failed cell division. Cell cycle analysis is a rapid and efficient way to evaluate the status of DNA content (ploidy) of a given cell. HeLa cells (1×10^4 HeLa cells/well) in 100 ul of media (MEM+10% FBS) were plated in 96-well plates (Packard View) and cultured for 24 hrs at 37° C. maintained in a 5% CO2 atmosphere. The following day, cells were treated for 24 hrs with inhibitor compounds (10 pt. Dose ranging from 0.0024-1.25 umol/L). The compounds were serially diluted in DMSO (0.25% final concentration). The cells were fixed (3.7% Formaldehyde and 1% glutaraldehyde) and permeabilized (1×PBS with 1% BSA and 0.2% Triton X-100) in preparation for nuclear staining. The well plates were stained for 45 minutes at RT in the dark using Hoechest 33342 nuclear stain at 0.5 ug·ml (Stock of 10 mg/ml, Invitrogen, CA, Cat # H3570). The nuclear stain was removed by aspiration and the cells were washed with wash buffer. A Cellomics Array Scan Vti plate reader was used to acquire the DNA ploidy data of the cells using Cell Cycle bioapplication. Numbers for each of “valid cell count/well”, “% of 4N cells” and “% of >4Ncells” were calculated with the assistance of an Activity Base 5.1ca software and dose curves were generated using an XLFit software. With XLFit, final EC50 IP and EC50 transit values, as well as the Max and Min, were calculated for each curve. Many of the Examples described herein were tested, and fund to be active compounds. Table I includes related biological data in the 24 h cell-ploidy content assay, which may be interpreted using the activity gauge below: […]

[2] = molecular target: T1, AuroraB (Homo sapiens, UniProt Q96GD4); experiment: AuroraB Homogeneous Time Resolved Fluorescent (HTRF) kinase assay; type: biochemical; details: ATP 23 μM, biotinylated Histone H3 peptide, read-out: AurB_IC50—IP (Avg)
T1 construct: 20 μL of AuroraB FL His; His
T1 sequence (Q96GD4 whole entry): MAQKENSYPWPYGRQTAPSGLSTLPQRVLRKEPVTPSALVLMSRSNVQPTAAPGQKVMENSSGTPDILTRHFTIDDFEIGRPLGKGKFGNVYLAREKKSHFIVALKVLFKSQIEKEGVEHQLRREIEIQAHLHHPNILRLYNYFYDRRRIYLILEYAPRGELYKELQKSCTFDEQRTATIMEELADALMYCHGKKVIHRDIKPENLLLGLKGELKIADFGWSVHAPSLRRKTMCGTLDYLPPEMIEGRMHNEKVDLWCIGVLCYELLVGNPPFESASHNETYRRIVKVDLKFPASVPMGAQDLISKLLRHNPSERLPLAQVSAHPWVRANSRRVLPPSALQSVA
Experimental: AuroraB-Homogeneous Time Resolved Fluorescent (HTRF) Kinase Assay:
The AuroraB HTRF assay begins with AuroraB in the presence of ATP phosphorylating the biotinylated peptide Histone H3. The reaction incubates for about 90 min. the reaction is quenched by addition of detection reagents, which stop the reaction by diluting out the enzyme and chelating the metals due to the presence of EDTA. After addition, the assay is incubated for about 60 min to allow detection reagents to equilibrate.
The AuroraB HTRF assay comprises 1 μL of compound in 100% DMSO, 20 μL of ATP and biotinylated Histone H3, and 20 μL of AuroraB FL His for a final volume of 41 μL. The final concentration of Histone H3 is 0.1 μM. The final concentration of ATP is 23 μM (Km(app)=23 μM+/−2.6) and the final concentration of AuroraB is 400 pM. Buffer conditions are as follows: 50 mM HEPES pH 7.5, 5 mM NaCl, 0.5 mM MgCl, 0.5 mM MnCl, 2 mM DTT, 0.05% BSA.
(§1) The assay is quenched and stopped with 160 μL of detection reagent. Detection reagents are as follows: Buffer made of 50 mM Tris, pH 7.5, 100 mM NaCl, 3 mM EDTA, 0.05% BSA, 0.1% Tween20. Added to this buffer prior to reading is Steptavidin allophycocyanin (SA-APC) at a final conc in the assay of 0.001 mg/mL, and europilated anti-phosphoHistoneH3 Ab (Eu-anti-His H3) at a final conc of 0.064 nM.
(§2) The assay plate is read in either a Discovery or a RubyStar. The eu-anti-His H3 is excited at 320 nm and emits at 615 nm to excite the SA-APC which in turn emits at 655 nm. The ratio of SA-APC at 655 nm (excited due to close proximity to the Eu-anti-His H3 because of phosphorylation of the peptide) to free Eu-anti-His H3 at 615 nm will give substrate phosphorylation.
(§3) Many of the Examples described herein were tested, and found to be active compounds. Table I includes related biological data, which may be interpreted using the activity gauge below: […]

[3] = molecular target: T2, AuroraA-TPX2 (Homo sapiens, UniProt O14965); experiment: AuroraA-TPX2 Homogeneous Time Resolved Fluorescent (HTRF) kinase assay; type: biochemical; details: ATP about 1 μM, biotinylated PLK peptide, read-out: AurA_IC50—IP (Avg)
T2 construct: 20 μL of AuroraA-TPX2 KD GST; GST
T2 sequence (O14965 133-383 limits assumed): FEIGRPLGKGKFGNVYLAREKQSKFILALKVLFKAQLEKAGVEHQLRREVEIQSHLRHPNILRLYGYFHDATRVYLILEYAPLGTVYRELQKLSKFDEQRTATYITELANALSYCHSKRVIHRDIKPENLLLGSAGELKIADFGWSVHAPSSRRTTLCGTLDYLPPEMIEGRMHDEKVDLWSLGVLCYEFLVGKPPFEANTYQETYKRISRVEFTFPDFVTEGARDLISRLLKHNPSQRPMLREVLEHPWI
T2 sequence (Q9ULW0 1-747 partner): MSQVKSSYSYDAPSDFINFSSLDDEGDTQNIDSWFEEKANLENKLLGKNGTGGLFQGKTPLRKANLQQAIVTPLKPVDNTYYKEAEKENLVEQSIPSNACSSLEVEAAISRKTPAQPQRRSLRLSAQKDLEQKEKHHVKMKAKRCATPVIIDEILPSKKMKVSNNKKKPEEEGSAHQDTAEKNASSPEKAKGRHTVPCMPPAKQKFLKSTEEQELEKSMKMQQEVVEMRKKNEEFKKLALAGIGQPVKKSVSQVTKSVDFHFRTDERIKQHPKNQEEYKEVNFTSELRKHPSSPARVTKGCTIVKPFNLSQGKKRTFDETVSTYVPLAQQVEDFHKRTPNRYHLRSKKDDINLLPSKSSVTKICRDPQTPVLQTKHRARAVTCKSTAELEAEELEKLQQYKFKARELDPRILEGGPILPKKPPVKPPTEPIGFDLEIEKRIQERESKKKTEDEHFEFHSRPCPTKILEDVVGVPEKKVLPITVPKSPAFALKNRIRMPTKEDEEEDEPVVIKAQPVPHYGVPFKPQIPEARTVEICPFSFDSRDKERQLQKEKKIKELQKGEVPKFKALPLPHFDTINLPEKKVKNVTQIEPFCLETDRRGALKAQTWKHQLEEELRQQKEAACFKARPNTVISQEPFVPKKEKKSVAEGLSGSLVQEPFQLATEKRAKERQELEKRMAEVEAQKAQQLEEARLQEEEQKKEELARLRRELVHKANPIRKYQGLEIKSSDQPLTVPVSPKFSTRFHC
Experimental: AuroraA-TPX2-Homogeneous Time Resolved Fluorescent (HTRF) Kinase Assay:
The Aurora-A HTRF assay begins with Aurora-A in the presence of ATP phosphorylating the biotinylated peptide PLK. The reaction incubates for about 120 min. Detection reagents are added to quench the reaction. These agents stop the reaction by diluting out the enzyme and chelating the metals due to the presence of EDTA. After addition, the assay is incubated overnight to allow the detection reagents to equilibrate.
The AuroraA HTRF assay comprises 1 μL of compound in 100% DMSO, 20 μL of ATP and biotinylated PLK, and 20 μL of AuroraA-TPX2 KD GST for a final volume of about 41 μL. The final concentration of PLK is about 1 μM. The final concentration of ATP is about 1 μM (Km(app)=1 μM+/−0.1) and the final concentration of AuroraA is about 5 nM. Buffer conditions are as follows: 60 mM HEPES pH 7.5, 25 mM NaCl, 10 mM MgCl, 2 mM DTT, 0.05% BSA.
as §1, with “0.0005” for “0.001”, “anti-phosphoPLK” for “anti-phosphoHistoneH3”, “(Eu-anti-PLK)” for “(Eu-anti-His H3)”, “0.02” for “0.064”
as §2, with “eu-anti-PLK” for “eu-anti-His H3”, “Eu-anti-PLK” for “Eu-anti-His H3”
as §3

| Compound | EC50 [1] [nM] | IC50 [2] [nM] | IC50 [3] [nM] |
| --- | --- | --- | --- |
| Cc1csc(-c2nnc(Nc3ccc(Sc4ncnn5cccc45)cc3)c3ccccc23)c1 [Example 26, 4-(4-methyl-2-thienyl)-N-(4-(pyrrolo[2,1-f][1,2,4]triazin-4-ylthio)phenyl)-1-phthalazinamine] | 100 to 500 | < 100 | 500 to 2500 |
| COCCOc1cc2nccc(Sc3ccc(Nc4nnc(-c5ccccc5)c5ccccc45)cc3)n2n1 [Example 27, N-(4-((2-((2-(methyloxy)ethyl)oxy)pyrazolo[1,5-a]pyrimidin-7-yl)thio)phenyl)-4-phenyl-1-phthalazinamine] | < 100 | < 100 | 100 to 500 |
| COCCOc1cc2nccc(Sc3ccc(Nc4nnc(-c5cc(C)cs5)c5ccccc45)cc3)n2n1 [Example 28, N-(4-((2-((2-(methyloxy)ethyl)oxy)pyrazolo[1,5-a]pyrimidin-7-yl)thio)phenyl)-4-(4-methyl-2-thienyl)-1-phthalazinamine] | < 100 | < 100 | < 100 |
| Clc1ccn2ncnc(Sc3ccc(Nc4nnc(-c5ccccc5)c5ccccc45)cc3)c12 [Example 29, N-(4-((5-chloropyrrolo[2,1-f][1,2,4]triazin-4-yl)thio)phenyl)-4-phenyl-1-phthalazinamine] | 100 to 500 | < 100 | > 2500 |
